Experimental data: patent US7888042B2, “Methods for identifying insulin mimetics” (Ohio University, priority 2005, dated 2011)

Experiments:
db/db mice = assay: Blood glucose in fasting db/db mice, oral dose; format: in vivo
Description: (§1) Either 6-8 week old male db/db mice or 8-12 week old male ob/ob mice were treated with aqueous solutions of α-PGG by either oral delivery (˜10 μL, A & B) or ip injection (˜50 μL, C, & D). (n=8-10, mean±SD, one-way ANOVA). α-PGG (●); vehicle (∘). α-PGG (20 mg/kg) was orally delivered without glucose to fasting db/db mice (A *, P<0.02; **, P<0.01; ***, P<0.001) or with glucose (0.4 g/kg body weight) to fasting ob/ob mice (B, glucose tolerance test). α-PGG (20 mg/kg) was ip injected into ob/ob mice on day 0 and day 4 (C). A single ip injection (20 mg/kg) of α-PGG was administered to ob/ob mice (D). Glucose (A, B, C) or insulin (D) was determined from sera or plasma isolated from tail vein blood. Animal studies. Genetically diabetic db/db mice or obese ob/ob mice were purchased from Jackson Lab. Male mice of 2-3 months of age were used. Unless otherwise stated, 10 mice (N=10) were used per group. α-PGG was either orally administered or intraperitoneally (ip) injected in the form of an aqueous solution at 20 mg/kg body weight with a 1-cc sterile plastic syringe. At different times after the α-PGG administration, blood or plasma was collected from the tail vein for measurement of glucose and insulin concentrations using commercial kits. Vehicle (aqueous solution) treated mice were used as controls and were statistically compared with the α-PGG treated mice. All animal studies were conducted in accord with the Ohio University guidelines for the use and care of laboratory animals.

α-subunit of IR = target: T1, α-subunit of IR (Mus musculus, UniProt P15208); assay: Cross-linking with Sulfo-SANPAH and Western blot with anti-IR α-subunit antibody; format: cell-based; settings: adipocytes, 200 μM, Sulfo-SANPAH, UV
T1 construct: endogenous in cells; host or cells: 3T3-L1 adipocytes (ATCC)
T1 sequence (P15208 28-748 limits assumed): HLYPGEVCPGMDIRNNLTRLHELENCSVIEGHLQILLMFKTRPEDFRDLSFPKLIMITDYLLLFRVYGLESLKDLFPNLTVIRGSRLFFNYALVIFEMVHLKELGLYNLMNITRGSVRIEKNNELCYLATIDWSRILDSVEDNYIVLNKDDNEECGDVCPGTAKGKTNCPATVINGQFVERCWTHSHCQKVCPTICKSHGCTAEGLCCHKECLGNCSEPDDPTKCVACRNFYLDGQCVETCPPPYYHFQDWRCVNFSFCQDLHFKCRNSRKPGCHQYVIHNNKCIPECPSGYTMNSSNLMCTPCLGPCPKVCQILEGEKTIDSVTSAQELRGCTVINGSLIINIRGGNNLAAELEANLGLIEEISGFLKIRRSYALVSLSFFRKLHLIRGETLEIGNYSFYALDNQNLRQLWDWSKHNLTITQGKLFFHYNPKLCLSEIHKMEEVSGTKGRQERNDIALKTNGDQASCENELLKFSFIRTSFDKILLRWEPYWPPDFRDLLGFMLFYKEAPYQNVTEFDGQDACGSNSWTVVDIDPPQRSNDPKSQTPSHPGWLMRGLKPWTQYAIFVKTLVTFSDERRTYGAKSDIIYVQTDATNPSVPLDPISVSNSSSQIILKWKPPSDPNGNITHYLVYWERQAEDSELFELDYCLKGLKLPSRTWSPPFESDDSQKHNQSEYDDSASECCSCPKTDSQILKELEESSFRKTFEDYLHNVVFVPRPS
T1 sequence (P15208 753-1372 partner limits assumed): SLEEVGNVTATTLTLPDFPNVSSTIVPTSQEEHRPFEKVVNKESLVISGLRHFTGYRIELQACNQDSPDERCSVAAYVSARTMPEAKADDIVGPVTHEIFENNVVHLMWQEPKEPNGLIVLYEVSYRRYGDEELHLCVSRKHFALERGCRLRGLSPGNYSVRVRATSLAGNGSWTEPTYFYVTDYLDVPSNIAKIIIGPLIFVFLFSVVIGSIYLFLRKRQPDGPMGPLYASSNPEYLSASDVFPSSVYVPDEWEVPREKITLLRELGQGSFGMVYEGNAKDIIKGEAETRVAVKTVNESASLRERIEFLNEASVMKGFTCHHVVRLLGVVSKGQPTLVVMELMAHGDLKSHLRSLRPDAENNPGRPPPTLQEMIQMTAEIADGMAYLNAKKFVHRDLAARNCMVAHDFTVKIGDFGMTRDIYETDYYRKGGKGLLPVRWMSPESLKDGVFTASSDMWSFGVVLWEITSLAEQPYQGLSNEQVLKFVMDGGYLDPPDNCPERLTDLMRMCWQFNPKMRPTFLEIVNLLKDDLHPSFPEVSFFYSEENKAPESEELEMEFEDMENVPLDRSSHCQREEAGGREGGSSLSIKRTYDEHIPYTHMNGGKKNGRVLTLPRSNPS
Description: (A) α-PGG binds to IR as measured by a SPR (28). Increasing concentrations of α-PGG was injected into the system to interact with the pure IR attached to the gold surface of the biosensor chip. The binding, represented in arbitrary response units, was automatically plotted against α-PGG concentrations to generate the binding curve. (B) Insulin binding to IR in the absence or presence of α-PGG. Increasing amounts of ^125I-labeled insulin were added to WGA-coated wells containing pre-bound IR isolated from CHO-IR cells in the absence of α-PGG or in the presence of 30 μM or 50 μM of α-PGG. After overnight incubation, removal of excessive ligands, and washing, the bound radioactive insulin was measured. (C) Insulin displacement by α-PGG. Fixed amounts of radioactive insulin (1 nM) were added to each of the WGA-coated wells pre-bound with IR. Increasing amounts of α-PGG were added to the wells to displace the ^125I-labeled insulin. […]
For the cross-linking reaction, sulfosuccinimidyl-6-(4′-azido-2′-nitrophenylamino) hexanoate (Sulfo-SANPAH), a photoactive, non-cleavable cross-linker (31, 32) purchased from Pierce was used to cross link β-PGG to plasma membrane proteins that it interacts with. […] Cells were lysed and the total cell protein was isolated and separated on an 8% reducing SDS-PAGE, transferred to a nylon membrane, and analyzed with an anti-IR α-subunit antibody.

PI-3 kinase = PI-3 kinase activity, radioactive TLC method; format: cell-based; settings: CHO-IR cells
Description: (§2) (A) Glucose transport was measured by determining [^3H]-2-deoxyglucose uptake stimulated by either insulin or α-PGG in 3T3-L1 cells in the presence or absence of HNMPA-(AM)3, an inhibitor of IR tyrosine kinase activity (24); wortmannin, an inhibitor of PI 3-kinase (25), or cytochalasin B, an inhibitor of GLUT4 (26), (n=4, mean±SD). (B) Cells were induced by 20 or 40 μM α-PGG or 100 nM insulin for 15 min. Cell lysates were separated by PAGE and analyzed for phosphorylation of IR (in CHO-IR cells) or Akt (in adipocytes) using antibodies specific to the target proteins. (C) Cells were treated with α-PGG and insulin in a fashion similar to (B) and assayed for their respective PI-3 kinase activity with a radioactive TLC method (27). (D) In similar experiments, intact cells were analyzed by confocal microscopy for translocation of GLUT4 using anti-GLUT4 antibodies.
(§3) Protein phosphorylation/activation and GLUT4 translocation. To investigate signal transduction induced by α-PGG, proteins from 3T3-L1 adipocytes or CHO-IR cells (23), which were treated with α-PGG or insulin for 15 min, were isolated, separated by PAGE, blotted on nylon membranes, and analyzed by Western blotting with antibodies against either IR or Akt. […]

Akt = Akt phosphorylation, Western blot; format: cell-based; settings: 3T3-L1 adipocytes, 20 or 40 μM, 15 min
Description: as §2, §3

IR = IR phosphorylation, Western blot; format: cell-based, Chinese hamster; settings: CHO-IR cells, 20 or 40 μM, 15 min
Description: as §2, §3

GLUT4 = GLUT4 translocation, confocal microscopy; format: cell-based; settings: adipocytes, 37° C., 15 min
Description: as §2, §3

ob/ob mice = assay: Plasma insulin in ob/ob mice, ip injection; format: in vivo; settings: single ip injection 20 mg/kg
Description: as §1, with “All animal studies were conducted in accord with the Ohio University guidelines for the use and care of laboratory animals.” left out

O=C(OC[C@H]1O[C@H](OC(=O)c2cc(O)c(O)c(O)c2)[C@H](OC(=O)c2cc(O)c(O)c(O)c2)[C@@H](OC(=O)c2cc(O)c(O)c(O)c2)[C@@H]1OC(=O)c1cc(O)c(O)c(O)c1)c1cc(O)c(O)c(O)c1 [α-PGG, alpha 1,2,3,4,6-penta-O-galloyl-D-Glucopyranose] was tested, and the “duration of blood glucose difference” value (db/db mice; oral 20 mg/kg) was “at least 5 hours”, the “glucose level lower than control group” value (db/db mice; oral 20 mg/kg, 4 to 6 hours after treatment) was “about 20%” and the blood glucose levels (db/db mice; single oral dose 20 mg/kg) was “significantly decreased”. For the same compound, the “gel migration of IR α-subunit after cross-linking” value (α-subunit of IR) was “Gel retardation of α-subunit of IR”, the PI-3 kinase activity (PI-3 kinase) was “activates PI-3 kinase” and the Akt phosphorylation (Akt) was “phosphorylated in 3T3-L1 adipocytes in a dose-dependent fashion”. The “phosphorylation of the IR” value (IR) was “induces the phosphorylation of the IR”, the GLUT4 translocation (GLUT4) was “translocated to the plasma membrane” and the plasma insulin levels (ob/ob mice; hyperinsulinemic ob/ob mice) was “significantly lower”. The “duration of anti-hyperinsulinemic effects” value (ob/ob mice; ob/ob mice) was “at least 24 hours”.
